According to US20120252865A1, “CARBAMATE DERIVATIVES IN PARTICULAR FOR THE TREATMENT OF NEUROLOGICAL DISORDERS” (SIGMA-TAU INDUSTRIE FARMACEUTICHE RIUNITE S.P.A., priority 2009, published 2012):

How the values were obtained:
[1] = biological target: NAPE-PLD (Homo sapiens, UniProt Q6IQ20); assay: Selectivity profile: NAPE-PLD; type: biochemical; details: tested at a multiple of the FAAH IC50
Protocol: (§1) The compounds of the present invention were also evaluated with regard to their selectivity profile against the following targets: AMT, NAPE-PLD, MAGL, DAGL, CB1/CB2 and TRPV1 according to the procedures described in Maccarrone M., et al., J. Biol. Chem., 2000, 275, 13484, Fezza F., et al., Anal Biochem., 2005, 339, 113, Dinh T. P., et al., 2002, Proc. Natl. Acad. Sci. 99, 10819, Bisogno T., et al., 2003, J. Cell Biol., 163, 463, Maccarrone M., et al., J. Biol. Chem., 2000, 275, 31938, Ross R. A., et al., Br. J. Pharmacol., 2001, 132, 631.

[2] = biological target: T1, fatty acid amide hydrolase (FAAH, EC 3.5.1.4) (Mus musculus, UniProt O08914); assay: FAAH assay: release of [1-14C]AA from [1-14C]AnNH by RP-HPLC; type: biochemical; details: mouse brain homogenate; for IC50: 37° C., 15 min, pH 9.0; for Ki: Lineweaver-Burk analysis
T1 construct: The reaction was initiated by the addition of mouse brain homogenate (40 μg); from tissue; host or cells: mouse brain homogenate
T1 sequence (O08914 1-579): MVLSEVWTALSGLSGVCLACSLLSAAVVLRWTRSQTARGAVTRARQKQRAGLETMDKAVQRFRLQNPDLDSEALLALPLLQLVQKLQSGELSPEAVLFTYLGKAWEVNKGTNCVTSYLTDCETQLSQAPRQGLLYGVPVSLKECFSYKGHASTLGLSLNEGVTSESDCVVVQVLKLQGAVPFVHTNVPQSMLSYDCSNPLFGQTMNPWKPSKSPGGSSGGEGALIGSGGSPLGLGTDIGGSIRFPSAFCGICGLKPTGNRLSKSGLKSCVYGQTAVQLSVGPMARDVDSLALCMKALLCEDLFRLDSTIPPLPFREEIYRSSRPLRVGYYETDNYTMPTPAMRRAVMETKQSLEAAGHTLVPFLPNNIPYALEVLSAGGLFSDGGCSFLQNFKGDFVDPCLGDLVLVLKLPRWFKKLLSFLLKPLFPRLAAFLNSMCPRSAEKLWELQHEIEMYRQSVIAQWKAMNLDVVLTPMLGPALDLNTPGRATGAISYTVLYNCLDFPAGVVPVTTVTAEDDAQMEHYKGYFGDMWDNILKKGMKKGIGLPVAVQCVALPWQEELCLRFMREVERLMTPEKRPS
Protocol: The compounds of the present invention show affinity and inhibit the enzymatic activity of the fatty acid amide hydrolase enzyme.
The assay of FAAH (EC 3.5.1.4) was performed by measuring the release of [1-^14C]AA from [1-^14C]AnNH (52 mCi/mmol), using RP-HPLC. Also [^3H]AnNH (205 Ci/mmol) could be used as substrate, measuring the release of [^3H]AA under the same experimental conditions described below for [1-^14C]AnNH. Compounds of the invention, at various concentrations, were added in 200 μl hydrolase assay buffer (50 mM Tris-HCl, pH 9.0), in 2-ml Eppendorf tubes, 20 min before adding [1-^14C]AnNH2, up to a concentration of 10 μM. The reaction was initiated by the addition of mouse brain homogenate (40 μg), and after incubation at 37° C. for 15 min it was stopped by the addition of 800 μl ice-cold methanol/chloroform (2:1, v/v) with vortexing. This mixture was allowed to stand at room temperature for 30 min, then 240 μl chloroform and 240 μl water were added with vortexing. After 10 min at room temperature, the mixture was centrifuged at 3000 g for 5 min, the upper aqueous layer was removed by suction and the lower organic phase was dried by spinning the samples in a DNA MINI speedvac (Heto-Holten, Denmark), at 100 mbar and 30° C. for 30 min. The residue was dissolved into 50 μl methanol and subjected to RP-HPLC analysis for AA quantitation, as detailed below. FAAH specific activity was expressed as pmol AA released/min/mg protein. Kinetic studies were performed by Lineweaver-Burk analysis, using [1-^14C]AnNH, [1-^14C]ODNHEtOH, or [1-^14C]ODNH2 in the concentration range 0-12 μM. Fitting of the experimental points by a linear regression programme (Kaleidagraph 3.0) yielded straight lines with r values >0.97.

[3] = biological target: CB2R (Homo sapiens, UniProt P34972); assay: Selectivity profile: CB2R; type: binding; details: tested at a multiple of the FAAH IC50
Protocol: as §1

[4] = biological target: T2, MAGL (Homo sapiens, UniProt Q99685); assay: Selectivity profile: MAGL; type: biochemical; details: tested at a multiple of the FAAH IC50
T2 sequence (Q99685 1-303): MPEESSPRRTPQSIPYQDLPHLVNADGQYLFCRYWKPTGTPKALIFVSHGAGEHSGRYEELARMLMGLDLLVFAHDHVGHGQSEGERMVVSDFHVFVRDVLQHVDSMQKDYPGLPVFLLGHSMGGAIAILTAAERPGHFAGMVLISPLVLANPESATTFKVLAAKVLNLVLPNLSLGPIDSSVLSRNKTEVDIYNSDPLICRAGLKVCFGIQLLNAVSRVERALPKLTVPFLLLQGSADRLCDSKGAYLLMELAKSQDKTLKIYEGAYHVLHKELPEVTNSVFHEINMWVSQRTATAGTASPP
Protocol: as §1

[5] = tested on: AMT; assay: Selectivity profile: AMT; type: cell-based
Protocol: as §1

[6] = biological target: CB1R (Homo sapiens, UniProt P21554); assay: Selectivity profile: CB1R; type: binding; details: tested at a multiple of the FAAH IC50
Protocol: as §1

[7] = tested on: TRPV1; assay: Selectivity profile: TRPV1; type: binding; details: tested at a multiple of the FAAH IC50
Protocol: as §1

[8] = tested on: DAGL; assay: Selectivity profile: DAGL; type: biochemical; details: tested at a multiple of the FAAH IC50
Protocol: as §1

[9] = tested on: mechanical hyperalgesia; assay: Paw withdrawal test for mechanical hyperalgesia (Randall-Selitto analgesimeter); type: in vivo; details: rat; for analgesic activity (nociceptive threshold, paw withdrawal): acute oral treatment, 30 mg/kg (FIG. 1)
Protocol: The paw withdrawal test was used to assess mechanical hyperalgesia. The nociceptive threshold, expressed in grams, was measured by applying increasing pressure to the left and right hind paws using a Randall-Selitto analgesimeter (Ugo Basile, Varese, Italy). The parameter used to quantify the nociceptive threshold was defined as the pressure (grams) at which the rat withdrew its paw. Rats were habituated to the testing procedures and handling by the investigator in the week prior to the experiment.
Dose response experiments at 10, 30 and 100 mg/kg were also conducted with ST4068, ST3911 and ST3913.

[10] = 100 mg/kg, compared with 30 mg/kg (FIGS. 2, 3 and 4)

CB2R, sequence (P34972 whole entry): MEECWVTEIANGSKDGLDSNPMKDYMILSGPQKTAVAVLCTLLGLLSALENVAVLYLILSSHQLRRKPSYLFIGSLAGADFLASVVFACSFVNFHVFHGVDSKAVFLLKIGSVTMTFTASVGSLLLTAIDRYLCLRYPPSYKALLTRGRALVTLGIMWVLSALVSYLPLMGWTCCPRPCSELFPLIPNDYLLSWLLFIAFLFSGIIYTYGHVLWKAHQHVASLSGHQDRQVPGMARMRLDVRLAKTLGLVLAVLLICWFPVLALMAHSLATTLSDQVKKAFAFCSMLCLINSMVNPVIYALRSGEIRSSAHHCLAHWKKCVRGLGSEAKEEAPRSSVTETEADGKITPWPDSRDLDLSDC
NAPE-PLD, sequence (Q6IQ20 whole entry, species assumed): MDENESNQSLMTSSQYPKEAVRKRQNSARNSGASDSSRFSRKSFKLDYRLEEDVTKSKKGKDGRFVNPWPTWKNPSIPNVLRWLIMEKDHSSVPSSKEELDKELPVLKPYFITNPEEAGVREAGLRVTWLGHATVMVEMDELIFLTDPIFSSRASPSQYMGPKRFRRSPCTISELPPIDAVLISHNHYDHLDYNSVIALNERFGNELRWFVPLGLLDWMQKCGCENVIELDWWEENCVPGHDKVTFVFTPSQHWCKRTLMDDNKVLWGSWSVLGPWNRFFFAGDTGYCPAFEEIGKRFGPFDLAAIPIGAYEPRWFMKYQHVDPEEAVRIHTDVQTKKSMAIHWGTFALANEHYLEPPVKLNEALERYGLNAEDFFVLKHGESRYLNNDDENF
CB1R, sequence (P21554 whole entry): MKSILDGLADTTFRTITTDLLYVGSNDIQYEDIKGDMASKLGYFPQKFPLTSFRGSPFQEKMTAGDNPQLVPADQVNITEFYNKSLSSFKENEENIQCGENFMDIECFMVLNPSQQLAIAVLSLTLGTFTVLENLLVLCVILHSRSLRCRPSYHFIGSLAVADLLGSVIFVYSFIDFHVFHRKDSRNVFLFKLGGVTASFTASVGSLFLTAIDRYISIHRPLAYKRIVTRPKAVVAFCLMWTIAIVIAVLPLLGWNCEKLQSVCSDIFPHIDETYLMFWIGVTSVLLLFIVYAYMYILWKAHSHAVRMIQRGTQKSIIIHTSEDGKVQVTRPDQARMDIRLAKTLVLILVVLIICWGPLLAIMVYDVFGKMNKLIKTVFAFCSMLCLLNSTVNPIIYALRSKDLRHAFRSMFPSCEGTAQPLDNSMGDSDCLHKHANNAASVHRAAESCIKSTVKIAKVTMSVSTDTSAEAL

Structure (SMILES): Cc1cc(C(N)=O)c(-c2cccc(OC(=O)NCCCCCCc3ccccc3)c2)s1 [Example 7, (6-phenyl-hexyl)-carbamic acid 3-(3-carbamoyl-5-methyl-thiophen-2-yl)-phenyl ester]
- inhibitory activity on NAPE-PLD [1]: −−−− (1000 times [IC50] with an inhibitory activity on the target <60%)
- IC50 [2]: < 0.01 µM
- Ki [2]: < 0.01 µM
- inhibitory activity on CB2R [3]: −−−− (1000 times [IC50] with an inhibitory activity on the target <60%)
- inhibitory activity on MAGL [4]: −−−− (1000 times [IC50] with an inhibitory activity on the target <60%)
- AMT, % @ 1 μM [5]: 60% @ 1 μM
- inhibitory activity on CB1R [6]: −−−− (1000 times [IC50] with an inhibitory activity on the target <60%)

Structure (SMILES): NC(=O)c1ccn(-c2cccc(OC(=O)NC3CCCCC3)c2)c1 [Example 3, cyclohexyl-carbamic acid 3-(3-carbamoyl-pyrrol-1-yl)-phenyl ester]
- IC50 [2]: 0.1 to 0.5 µM
- Ki [2]: 0.01 to 0.1 µM

Structure (SMILES): Cc1oc(-c2cccc(OC(=O)NCCCCCCc3ccccc3)c2)cc1C(N)=O [Example 9, (6-phenyl-hexyl)-carbamic acid 3-(4-carbamoyl-5-methyl-furan-2-yl)-phenyl ester]
- inhibitory activity on TRPV1 [7]: −−−− (1000 times [IC50] with an inhibitory activity on the target <60%)
- inhibitory activity on NAPE-PLD [1]: −−−− (1000 times [IC50] with an inhibitory activity on the target <60%)
- IC50 [2]: 0.01 to 0.1 µM
- Ki [2]: < 0.01 µM
- inhibitory activity on CB2R [3]: −−−− (1000 times [IC50] with an inhibitory activity on the target <60%)
- inhibitory activity on MAGL [4]: −−−− (1000 times [IC50] with an inhibitory activity on the target <60%)
- inhibitory activity on DAGL [8]: −−−− (1000 times [IC50] with an inhibitory activity on the target <60%)
- AMT, % @ 1 μM [5]: 80% @ 1 μM
- inhibitory activity on CB1R [6]: −−−− (1000 times [IC50] with an inhibitory activity on the target <60%)

Structure (SMILES): Cc1oc(-c2cccc(OC(=O)NC3CCCCC3)c2)cc1C(N)=O [Example 8, cyclohexyl-carbamic acid 3-(4-carbamoyl-5-methyl-furan-2-yl)-phenyl ester]
- IC50 [2]: 0.1 to 0.5 µM

Structure (SMILES): Cc1cc(C(N)=O)c(-c2cccc(OC(=O)NCCCCCCc3ccccc3)c2)o1 [Example 6, (6-phenyl-hexyl)-carbamic acid 3-(3-carbamoyl-5-methyl-furan-2-yl)-phenyl ester]
- IC50 [2]: < 0.01 µM
- Ki [2]: < 0.01 µM
- analgesic activity, dose response ([9]; 30 mg/kg (FIGS. 2, 3 and 4)): did exert analgesic activity
- analgesic activity, dose response [9, 10]: higher effect
- analgesic activity (nociceptive threshold, paw withdrawal) [9]: significant analgesic activity

Structure (SMILES): CCCCNC(=O)Oc1cccc(-c2oc(C)cc2C(N)=O)c1 [Example 5, butyl-carbamic acid 3-(3-carbamoyl-5-methyl-furan-2-yl)-phenyl ester]
- IC50 [2]: 0.5 to 5 µM
- Ki [2]: 0.1 to 0.5 µM

Structure (SMILES): CCCCNC(=O)Oc1cccc(-c2oc(C)cc2C(=O)OCC)c1 [Example 10, 2-(3-butylcarbamoyloxy-phenyl)-5-methyl-furan-3-carboxylic acid ethyl ester]
- IC50 [2]: 0.1 to 0.5 µM

Structure (SMILES): C#CCCCCCCCCCOC(=O)c1ccn(-c2cccc(OC(=O)NCCCC)c2)c1 [Example 11, 1-(3-butylcarbamoyloxy-phenyl)-1H-pyrrole-3-carboxylic acid undec-10-ynyl ester]
- IC50 [2]: 0.1 to 0.5 µM

Structure (SMILES): NC(=O)c1ccn(-c2cccc(OC(=O)NCCCCCCc3ccccc3)c2)c1 [Example 4, (6-phenyl-hexyl)-carbamic acid 3-(3-carbamoyl-pyrrol-1-yl)-phenyl ester]
- inhibitory activity on TRPV1 [7]: −−−− (1000 times [IC50] with an inhibitory activity on the target <60%)
- inhibitory activity on NAPE-PLD [1]: −−−− (1000 times [IC50] with an inhibitory activity on the target <60%)
- IC50 [2]: < 0.01 µM
- Ki [2]: < 0.01 µM
- inhibitory activity on CB2R [3]: −−−− (1000 times [IC50] with an inhibitory activity on the target <60%)
- inhibitory activity on MAGL [4]: −−−− (1000 times [IC50] with an inhibitory activity on the target <60%)
- inhibitory activity on DAGL [8]: −−−− (1000 times [IC50] with an inhibitory activity on the target <60%)
- AMT, % @ 1 μM [5]: 80% @ 1 μM
- analgesic activity, dose response ([9]; 30 mg/kg (FIGS. 2, 3 and 4)): did exert analgesic activity
- analgesic activity, dose response [9, 10]: higher effect
- analgesic activity (nociceptive threshold, paw withdrawal) [9]: significant analgesic activity
- inhibitory activity on CB1R [6]: −−−− (1000 times [IC50] with an inhibitory activity on the target <60%)

Structure (SMILES): CCCCNC(=O)Oc1cccc(-n2ccc(C(=O)OCCCCCCc3ccccc3)c2)c1 [Example 12, 1-(3-butylcarbamoyloxy-phenyl)-1H-pyrrole-3-carboxylic acid 6-phenyl-hexyl ester]
- IC50 [2]: 0.1 to 0.5 µM

Structure (SMILES): C#CCCCCCCCCCNC(=O)Oc1cccc(-n2ccc(C(N)=O)c2)c1 [Example 2, undec-10-ynyl-carbamic acid 3-(3-carbamoyl-pyrrol-1-yl)-phenyl ester]
- IC50 [2]: < 0.01 µM
- Ki [2]: < 0.01 µM
- analgesic activity, dose response ([9]; 30 mg/kg (FIGS. 2, 3 and 4)): did exert analgesic activity
- analgesic activity, dose response [9, 10]: higher effect
- analgesic activity (nociceptive threshold, paw withdrawal) [9]: significant analgesic activity

Structure (SMILES): Cc1cc(C(N)=O)c(-c2cccc(OC(=O)NC3CCCCC3)c2)o1 [Example 13, cyclohexyl-carbamic acid 3-(3-carbamoyl-5-methyl-furan-2-yl)-phenyl ester]
- IC50 [2]: 0.1 to 0.5 µM

Structure (SMILES): Cc1cc(C(N)=O)c(-c2cccc(OC(=O)NC3CCCCC3)c2)s1 [Example 14, cyclohexyl-carbamic acid 3-(3-carbamoyl-5-methyl-thiophen-2-yl)-phenylester]
- IC50 [2]: 0.1 to 0.5 µM

Structure (SMILES): CCCCNC(=O)Oc1cccc(-n2ccc(C(N)=O)c2)c1 [Example 1, butyl-carbamic acid 3-(3-carbamoyl-pyrrol-1-yl)-phenyl ester]
- IC50 [2]: 0.1 to 0.5 µM
- Ki [2]: 0.01 to 0.1 µM
